Experimental data: patent US12558428B2, “Heterobifunctional compounds and their use in treating disease” (Halda Therapeutics OpCo, Inc., priority 2024, dated 2026)

tested on: T-Rex 293 cells lacking increased expression of estrogen receptor alpha protein; experiment: Cellular growth inhibition assay, T-Rex 293 cells, (−) doxycycline; assay type: cell-based; settings: T-REx-293, 72 h, Table 7-A; T-Rex 293 cells without doxycycline (lacking increased ERα expression); 72 hours; CellTiter-Glo; read-out: (−) Dox GI50
Outline: (§1)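 Growth of a doxycycline-inducible ERα T-Rex 293 clone, induced or not with 3 ng/mL doxycycline, was followed for 72 h with test compound in hormone-depleted medium. CellTiter-Glo luminescence gave GI50.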

SMILES | GI50 [µM]
Cc1sc2c(c1C)C(c1ccc(N3CCC4(CCN(CC5CCN(c6ccc([C@@H]7c8ccc(O)cc8CC[C@@H]7c7ccccc7)cc6)CC5)CC4)C3)cc1)=N[C@@H](C)c1nnc(C)n1-2 [III-190] | 0.5 to 2.5
Cc1sc2c(c1C)C(c1ccc(N3CCC4(CCN(CC5CCC(c6ccc([C@@H]7c8ccc(O)cc8CC[C@@H]7c7ccccc7)cc6)CC5)C4)CC3)cc1)=N[C@@H](C)c1nnc(C)n1-2 (stereo partly drawn) [III-191] | 0.05 to 0.5
Cc1sc2c(c1C)C(c1ccc(N3CCC(O)(CN4CCN(c5ccc([C@H]6c7ccc(O)cc7CC[C@H]6c6ccc(F)cc6F)cc5)CC4)CC3)cc1)=N[C@H](Cc1ncco1)c1nnc(C)n1-2 [III-192] | > 2.5
Cc1sc2c(c1C)C(c1ccc(N3CCC(O)(CN4CCN(c5ccc([C@@H]6c7ccc(O)cc7CC[C@@H]6c6ccc(F)cc6F)cc5)CC4)CC3)cc1)=N[C@H](Cc1ncco1)c1nnc(C)n1-2 [III-193] | 0.5 to 2.5
Cc1sc2c(c1C)C(c1ccc(N3CCC(O)(CN4CCN(c5cc(F)c([C@H]6c7ccc(O)cc7CC[C@H]6c6ccccc6)c(F)c5)CC4)CC3)cc1)=N[C@@H](Cc1ncco1)c1nnc(C)n1-2 [III-194] | > 2.5
Cc1sc2c(c1C)C(c1ccc(N3CCC(O)(CN4CCN(c5cc(F)c([C@H]6c7ccc(O)cc7CC[C@H]6c6ccccc6)c(F)c5)CC4)CC3)cc1)=N[C@H](Cc1ncco1)c1nnc(C)n1-2 [III-195] | > 2.5
Cc1sc2c(c1C)C(c1ccc(N3CCC(O)(CN4CCN(c5cc(F)c([C@@H]6c7ccc(O)cc7CC[C@@H]6c6ccccc6)c(F)c5)CC4)CC3)cc1)=N[C@@H](Cc1ncco1)c1nnc(C)n1-2 [III-196] | 0.05 to 0.5
Cc1sc2c(c1C)C(c1ccc(N3CCC(O)(CN4CCN(c5cc(F)c([C@@H]6c7ccc(O)cc7CC[C@@H]6c6ccccc6)c(F)c5)CC4)CC3)cc1)=N[C@H](Cc1ncco1)c1nnc(C)n1-2 [III-197] | 0.05 to 0.5
Cc1sc2c(c1C)C(c1ccc(N3CCC(O)(CN4CCN(c5ccc([C@H]6c7ccc(C(=O)O)cc7CC[C@H]6c6ccccc6)cc5)CC4)CC3)cc1)=N[C@H](Cc1ncco1)c1nnc(C)n1-2 [III-198] | > 2.5
Cc1sc2c(c1C)C(c1ccc(N3CCC(O)(CN4CCN(c5ccc([C@H]6c7ccc(C(=O)O)cc7CC[C@H]6c6ccccc6)cc5)CC4)CC3)cc1)=N[C@@H](Cc1ncco1)c1nnc(C)n1-2 [III-199] | > 2.5
Cc1sc2c(c1C)C(c1ccc(N3CCC(O)(CN4CCN(c5ccc([C@@H]6c7ccc(C(=O)O)cc7CC[C@@H]6c6ccccc6)cc5)CC4)CC3)cc1)=N[C@@H](Cc1ncco1)c1nnc(C)n1-2 [III-200] | 0.05 to 0.5
Cc1sc2c(c1C)C(c1ccc(N3CCC(O)(CN4CCN(c5ccc([C@@H]6c7ccc(C(=O)O)cc7CC[C@@H]6c6ccccc6)cc5)CC4)CC3)cc1)=N[C@H](Cc1ncco1)c1nnc(C)n1-2 [III-201] | 0.05 to 0.5
Cc1sc2c(c1C)C(c1ccc(N3CCC4(CCN(CC5CCN(c6ccc([C@@H]7c8ccc(O)cc8CC[C@@H]7c7ccccc7)cc6)CC5)CC4)C3)cc1)=N[C@@H](Cc1ncco1)c1nnc(C)n1-2 [III-202] | 0.05 to 0.5

tested on: T-Rex 293 cells having increased expression of estrogen receptor alpha protein; experiment: Cellular growth inhibition assay, T-Rex 293 cells, (+) doxycycline; assay type: cell-based; settings: T-REx-293, 72 h, Table 7-A; T-Rex 293 cells with doxycycline (increased ERα expression); 72 hours; CellTiter-Glo; read-out: (+) Dox GI50
Outline: as §1

SMILES | GI50 [µM]
Cc1sc2c(c1C)C(c1ccc(N3CCC4(CCN(CC5CCN(c6ccc([C@@H]7c8ccc(O)cc8CC[C@@H]7c7ccccc7)cc6)CC5)CC4)C3)cc1)=N[C@@H](C)c1nnc(C)n1-2 [III-190] | < 0.05
Cc1sc2c(c1C)C(c1ccc(N3CCC4(CCN(CC5CCC(c6ccc([C@@H]7c8ccc(O)cc8CC[C@@H]7c7ccccc7)cc6)CC5)C4)CC3)cc1)=N[C@@H](C)c1nnc(C)n1-2 (stereo partly drawn) [III-191] | < 0.05
Cc1sc2c(c1C)C(c1ccc(N3CCC(O)(CN4CCN(c5ccc([C@H]6c7ccc(O)cc7CC[C@H]6c6ccc(F)cc6F)cc5)CC4)CC3)cc1)=N[C@H](Cc1ncco1)c1nnc(C)n1-2 [III-192] | > 2.5
Cc1sc2c(c1C)C(c1ccc(N3CCC(O)(CN4CCN(c5ccc([C@@H]6c7ccc(O)cc7CC[C@@H]6c6ccc(F)cc6F)cc5)CC4)CC3)cc1)=N[C@H](Cc1ncco1)c1nnc(C)n1-2 [III-193] | 0.05 to 0.5
Cc1sc2c(c1C)C(c1ccc(N3CCC(O)(CN4CCN(c5cc(F)c([C@H]6c7ccc(O)cc7CC[C@H]6c6ccccc6)c(F)c5)CC4)CC3)cc1)=N[C@@H](Cc1ncco1)c1nnc(C)n1-2 [III-194] | > 2.5
Cc1sc2c(c1C)C(c1ccc(N3CCC(O)(CN4CCN(c5cc(F)c([C@H]6c7ccc(O)cc7CC[C@H]6c6ccccc6)c(F)c5)CC4)CC3)cc1)=N[C@H](Cc1ncco1)c1nnc(C)n1-2 [III-195] | > 2.5
Cc1sc2c(c1C)C(c1ccc(N3CCC(O)(CN4CCN(c5cc(F)c([C@@H]6c7ccc(O)cc7CC[C@@H]6c6ccccc6)c(F)c5)CC4)CC3)cc1)=N[C@@H](Cc1ncco1)c1nnc(C)n1-2 [III-196] | < 0.05
Cc1sc2c(c1C)C(c1ccc(N3CCC(O)(CN4CCN(c5cc(F)c([C@@H]6c7ccc(O)cc7CC[C@@H]6c6ccccc6)c(F)c5)CC4)CC3)cc1)=N[C@H](Cc1ncco1)c1nnc(C)n1-2 [III-197] | < 0.05
Cc1sc2c(c1C)C(c1ccc(N3CCC(O)(CN4CCN(c5ccc([C@H]6c7ccc(C(=O)O)cc7CC[C@H]6c6ccccc6)cc5)CC4)CC3)cc1)=N[C@H](Cc1ncco1)c1nnc(C)n1-2 [III-198] | > 2.5
Cc1sc2c(c1C)C(c1ccc(N3CCC(O)(CN4CCN(c5ccc([C@H]6c7ccc(C(=O)O)cc7CC[C@H]6c6ccccc6)cc5)CC4)CC3)cc1)=N[C@@H](Cc1ncco1)c1nnc(C)n1-2 [III-199] | > 2.5
Cc1sc2c(c1C)C(c1ccc(N3CCC(O)(CN4CCN(c5ccc([C@@H]6c7ccc(C(=O)O)cc7CC[C@@H]6c6ccccc6)cc5)CC4)CC3)cc1)=N[C@@H](Cc1ncco1)c1nnc(C)n1-2 [III-200] | < 0.05
Cc1sc2c(c1C)C(c1ccc(N3CCC(O)(CN4CCN(c5ccc([C@@H]6c7ccc(C(=O)O)cc7CC[C@@H]6c6ccccc6)cc5)CC4)CC3)cc1)=N[C@H](Cc1ncco1)c1nnc(C)n1-2 [III-201] | 0.05 to 0.5
Cc1sc2c(c1C)C(c1ccc(N3CCC4(CCN(CC5CCN(c6ccc([C@@H]7c8ccc(O)cc8CC[C@@H]7c7ccccc7)cc6)CC5)CC4)C3)cc1)=N[C@@H](Cc1ncco1)c1nnc(C)n1-2 [III-202] | < 0.05

tested on: MCF7 cells (ATCC #HTB-22); experiment: Cellular growth inhibition assay, MCF7 cells purchased from ATCC; assay type: cell-based; settings: Homo sapiens, MCF7, 144 h, Table 8-A; MCF7 cells purchased from ATCC; six days; CellTiter-Glo; read-out: GI50
Outline: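 GI50 values come from a four-parameter fit of CellTiter-Glo 2.0 luminescence after six days of compound exposure at 37° C. Seeding density depended on the source: 225 cells/well for ECACC MCF7, 1,500 for ATCC. Medium was RPMI 1640 with 10% FBS and 0.2 U/ml insulin.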

SMILES | GI50 [µM]
Cc1sc2c(c1C)C(c1ccc(N3CCC4(CCN(CC5CCN(c6ccc([C@@H]7c8ccc(O)cc8CC[C@@H]7c7ccccc7)cc6)CC5)CC4)C3)cc1)=N[C@@H](C)c1nnc(C)n1-2 [III-190] | 0.05 to 0.5
Cc1sc2c(c1C)C(c1ccc(N3CCC4(CCN(CC5CCC(c6ccc([C@@H]7c8ccc(O)cc8CC[C@@H]7c7ccccc7)cc6)CC5)C4)CC3)cc1)=N[C@@H](C)c1nnc(C)n1-2 (stereo partly drawn) [III-191] | 0.05 to 0.5
Cc1sc2c(c1C)C(c1ccc(N3CCC(O)(CN4CCN(c5ccc([C@H]6c7ccc(O)cc7CC[C@H]6c6ccc(F)cc6F)cc5)CC4)CC3)cc1)=N[C@H](Cc1ncco1)c1nnc(C)n1-2 [III-192] | > 2.5
Cc1sc2c(c1C)C(c1ccc(N3CCC(O)(CN4CCN(c5ccc([C@@H]6c7ccc(O)cc7CC[C@@H]6c6ccc(F)cc6F)cc5)CC4)CC3)cc1)=N[C@H](Cc1ncco1)c1nnc(C)n1-2 [III-193] | 0.05 to 0.5
Cc1sc2c(c1C)C(c1ccc(N3CCC(O)(CN4CCN(c5cc(F)c([C@H]6c7ccc(O)cc7CC[C@H]6c6ccccc6)c(F)c5)CC4)CC3)cc1)=N[C@@H](Cc1ncco1)c1nnc(C)n1-2 [III-194] | > 2.5
Cc1sc2c(c1C)C(c1ccc(N3CCC(O)(CN4CCN(c5cc(F)c([C@H]6c7ccc(O)cc7CC[C@H]6c6ccccc6)c(F)c5)CC4)CC3)cc1)=N[C@H](Cc1ncco1)c1nnc(C)n1-2 [III-195] | 0.5 to 2.5
Cc1sc2c(c1C)C(c1ccc(N3CCC(O)(CN4CCN(c5cc(F)c([C@@H]6c7ccc(O)cc7CC[C@@H]6c6ccccc6)c(F)c5)CC4)CC3)cc1)=N[C@@H](Cc1ncco1)c1nnc(C)n1-2 [III-196] | < 0.05
Cc1sc2c(c1C)C(c1ccc(N3CCC(O)(CN4CCN(c5cc(F)c([C@@H]6c7ccc(O)cc7CC[C@@H]6c6ccccc6)c(F)c5)CC4)CC3)cc1)=N[C@H](Cc1ncco1)c1nnc(C)n1-2 [III-197] | 0.05 to 0.5
Cc1sc2c(c1C)C(c1ccc(N3CCC(O)(CN4CCN(c5ccc([C@H]6c7ccc(C(=O)O)cc7CC[C@H]6c6ccccc6)cc5)CC4)CC3)cc1)=N[C@H](Cc1ncco1)c1nnc(C)n1-2 [III-198] | > 2.5
Cc1sc2c(c1C)C(c1ccc(N3CCC(O)(CN4CCN(c5ccc([C@H]6c7ccc(C(=O)O)cc7CC[C@H]6c6ccccc6)cc5)CC4)CC3)cc1)=N[C@@H](Cc1ncco1)c1nnc(C)n1-2 [III-199] | > 2.5
Cc1sc2c(c1C)C(c1ccc(N3CCC(O)(CN4CCN(c5ccc([C@@H]6c7ccc(C(=O)O)cc7CC[C@@H]6c6ccccc6)cc5)CC4)CC3)cc1)=N[C@@H](Cc1ncco1)c1nnc(C)n1-2 [III-200] | < 0.05
Cc1sc2c(c1C)C(c1ccc(N3CCC(O)(CN4CCN(c5ccc([C@@H]6c7ccc(C(=O)O)cc7CC[C@@H]6c6ccccc6)cc5)CC4)CC3)cc1)=N[C@H](Cc1ncco1)c1nnc(C)n1-2 [III-201] | 0.05 to 0.5
Cc1sc2c(c1C)C(c1ccc(N3CCC4(CCN(CC5CCN(c6ccc([C@@H]7c8ccc(O)cc8CC[C@@H]7c7ccccc7)cc6)CC5)CC4)C3)cc1)=N[C@@H](Cc1ncco1)c1nnc(C)n1-2 [III-202] | < 0.05
